# Experimental data: patent publication US20070213303A1, “Methods for reducing platelet activation and for the treatment of thrombotic events” (priority 2005, published 2007)
# Assays:
# Type in all cases: cell-based, human
# CD40-ligand (CD154) = test: Flow cytometry, platelet surface expression of CD154
# Procedure: (§1) Venous blood (8 ml) is collected in a plastic tube containing 2 ml of acid-citrate-dextrose (ACD) (7.3 g citric acid, 22.0 g sodium citrate.2H2O and 24.5 glucose in 1000 ml distilled water) and mixed well. The blood-ACD mixture is centrifuged at 1000 r.p.m. for 10 minutes at room temperature. The upper ⅔ of the platelet-rich plasma (PRP) is then collected and adjusted to pH=6.5 by adding ACD. The PRP is then centrifuged at 3000 r.p.m. for 10 minutes. The supernatant is removed and the platelet pellet is gently resuspended in 4 cc of the washing buffer (10 mM Tris/HCl, 0.15 M NaCl, 20 mM EDTA, pH=7.4). Platelets are washed in the washing buffer, and in TBS (10 mM Tris, 0.15 M NaCl, pH=7.4). All cells are then divided into the appropriate number of tubes. By way of example, if 9 different surface markers are evaluated, as described herein, then the cells should be divided into ten tubes, such that nine tubes containing washed platelets are incubated with 5 μl fluorescein isothiocyanate (FITC)-conjugated antibodies in the dark at +4° C. for 30 minutes, and one tube remains unstained and serves as a negative control. Surface antigen expression is measured with monoclonal murine anti-human antibodies, such as CD9 (p24); CD41a (IIb/IIIa, aIIbb3); CD42b (Ib); CD61(IIIa) (DAKO Corporation, Carpinteria, Calif.); CD49b (VLA-2, or a2b1); CD62p (P-selectin); CD31 (PECAM-1); CD 41b (IIb); and CD51/CD61 (vitronectin receptor, avb3) (PharMingen, San Diego Calif.), as the expression of these antigens on the cells is associated with platelet activation. After incubation, the cells are washed with TBS and resuspended in 0.25 ml of 1% paraformaldehyde. Samples are stored in the refrigerator at +4° C., and analyzed on a Becton Dickinson FACScan flow cytometer with laser output of 15 mw, excitation at 488 nm, and emission detection at 530±30 nm. The data can be collected and stored in list mode, and then analyzed using CELLQuest® software. FACS procedures are described in detail in, e.g., Gurbel, P. A. et al., J Amer Coll Cardiol 31: 1466-1473 (1998); Serebruany, V. L. et al., Am Heart J 136: 398-405 (1998); Gurbel, P. A. et al., Coron Artery Dis 9: 451-456 (1998) and Serebruany, V. L. et al., Arterioscl Thromb Vasc Biol 19: 153-158 (1999).
# (§2) Four cc of blood is collected in a tube, containing 2 cc of acid-citrate-dextrose (ACD; 7.3 g citric acid, 22.0 g sodium citrate.2H2O and 24.5 glucose in 1000 ml distilled water) and mixed well. The buffer, TBS (10 mM Tris, 0.15 M NaCl, pH 7.4) and the following fluorescein isothiocyanate (FITC) conjugated monoclonal antibodies (PharMingen, San Diego, Calif., USA, and DAKO, Calif., USA) are removed from a refrigerator and allowed to warm at room temperature (RT) prior to their use. The non-limiting examples of antibodies that can be used include CD41 (IIb/IIIa), CD31 (PECAM-1), CD62p (P-selectin), and CD51/61 (Vitronectin receptor). For each subject, six amber tubes (1.25 ml) are one Eppendorf tube (1.5 ml) are obtained and marked appropriately 450 μl of TBS buffer is pipetted to the labeled Eppendorf tube. A patient's whole blood tube is inverted gently twice to mix, and 50 μl of whole blood is pipetted to the appropriately labeled Eppendorf tube. The Eppendorf tube is capped and the diluted whole blood is mixed by inverting the Eppendorf tube gently two times, followed by pipetting 50 μl of diluted whole blood to each amber tube. […] The samples are analyzed on a Becton Dickinson FACScan flow cytometer. […]
# LAMP-3 (CD63) = test: Flow cytometry, platelet surface expression of CD63
# Procedure: as §1, §2
# PECAM-1 (CD31) = test: Flow cytometry, platelet surface expression of CD31
# Procedure: as §1, §2
# GP37 (CD165) = test: Flow cytometry, platelet surface expression of CD165
# Procedure: as §1, §2
# [1] = test system: platelet-monocyte microparticles (CD14+CD151); test: Flow cytometry, formation of platelet-monocyte microparticles
# Procedure: as §1, §2
# LAMP-1 (CD107a) = test: Flow cytometry, platelet surface expression of CD107a
# Procedure: as §1, §2
# PAR-1 (WEDE15) = test: Flow cytometry, PAR-1 thrombin receptor expression (WEDE15)
# Procedure: as §1, §2
# platelets = test: Conventional platelet aggregation induced by ADP
# Procedure: Trisodium citrate (3.8%) and whole blood is immediately mixed in a 1:9 ratio, and then centrifuged at 1200 g for 2.5 minutes, to obtain platelet-rich plasma (PRP), which is kept at room temperature for use within 1 hour for platelet aggregation studies. Platelet count is determined in each PRP sample with a Coulter Counter ZM (Coulter Co., Hialeah, Fla.). Platelet numbers are adjusted to 3.50×10^8/ml for aggregation with homologous platelet-poor plasma. PRP and whole blood aggregation tests are performed simultaneously. Whole blood is diluted 1:1 with the 0.5 ml PBS, and then swirled gently to mix. The cuvette with the stirring bar is placed in the incubation well and allowed to warm to 37° C. for 5 minutes. Then the samples are transferred to the assay well. An electrode is placed in the sample cuvette. Platelet aggregation is stimulated with 5 μM ADP, 1 μg/ml collagen, and 0.75 mM arachidonic acid. All agonists are obtained, e.g., from Chronolog Corporation (Hawertown, Pa.). Platelet aggregation studies are performed using a Chrono-Log Whole Blood Lumi-Aggregometer (model 560-Ca). Platelet aggregability is expressed as the percentage of light transmittance change from baseline using platelet-poor plasma as a reference at the end of recording time for plasma samples, or as a change in electrical impedance for whole blood samples. Aggregation curves are recorded for 4 minutes and analyzed according to internationally established standards using Aggrolink® software.
# The effect of doses (15 μg/ml to 90 μg/ml) of Compound A on in vitro platelet characteristics in subjects with multiple factors for vascular disease was tested.
# The in vitro effects of pre-incubation with escalating concentrations of Compound A on platelet aggregation, and expression of major surface receptors by flow cytometry, were assessed in 20 aspirin naïve volunteers with multiple risk factors for vascular disease.
compound,measurement,setting,value
CC(C)(Sc1cc(C(C)(C)C)c(O)c(C(C)(C)C)c1)Sc1cc(C(C)(C)C)c(OC(=O)CCC(=O)O)c(C(C)(C)C)c1 [Compound A],CD40-ligand (CD154),CD40-ligand (CD154),little or no effect
same,Flow cytometry CD154,CD40-ligand (CD154); preincubation 15 μg/mL,6.6 ± 1.0
same,Flow cytometry CD154,CD40-ligand (CD154); preincubation 30 μg/mL,6.7 ± 0.9
same,Flow cytometry CD154,CD40-ligand (CD154); preincubation 60 μg/mL,6.8 ± 1.1
same,Flow cytometry CD154,CD40-ligand (CD154); preincubation 90 μg/mL,7.0 ± 1.1
same,LAMP-3 (CD63),LAMP-3 (CD63),little or no effect
same,Flow cytometry CD63,LAMP-3 (CD63); preincubation 15 μg/mL,7.0 ± 1.4
same,Flow cytometry CD63,LAMP-3 (CD63); preincubation 30 μg/mL,7.4 ± 1.4
same,Flow cytometry CD63,LAMP-3 (CD63); preincubation 60 μg/mL,6.8 ± 1.5
same,Flow cytometry CD63,LAMP-3 (CD63); preincubation 90 μg/mL,6.7 ± 1.4
same,Flow cytometry CD31,PECAM-1 (CD31); preincubation 15 μg/mL,58.4 ± 5.7
same,Flow cytometry CD31,PECAM-1 (CD31); preincubation 30 μg/mL,57.8 ± 6.5
same,Flow cytometry CD31,PECAM-1 (CD31); preincubation 60 μg/mL,55.8 ± 7.1
same,Flow cytometry CD31,PECAM-1 (CD31); preincubation 90 μg/mL,50.9 ± 8.9
same,Surface platelet expression of PECAM-1 (CD31),PECAM-1 (CD31); pretreated samples,decreased
same,GP37 (CD165),GP37 (CD165),little or no effect
same,Flow cytometry CD165,GP37 (CD165); preincubation 15 μg/mL,26.9 ± 2.7
same,Flow cytometry CD165,GP37 (CD165); preincubation 30 μg/mL,24.7 ± 2.7
same,Flow cytometry CD165,GP37 (CD165); preincubation 60 μg/mL,26.4 ± 3.7
same,Flow cytometry CD165,GP37 (CD165); preincubation 90 μg/mL,25.5 ± 3.2
same,Flow cytometry CD151 + 14,[1]; preincubation 15 μg/mL,131.4 ± 11.8
same,Flow cytometry CD151 + 14,[1]; preincubation 30 μg/mL,107.6 ± 15.4
same,Flow cytometry CD151 + 14,[1]; preincubation 60 μg/mL,98.7 ± 12.9
same,Flow cytometry CD151 + 14,[1]; preincubation 90 μg/mL,97.9 ± 10.8
same,Formation of platelet-monocyte microparticles (CD14+CD151),[1]; pretreated samples,reduced
same,LAMP-1 (CD107a),LAMP-1 (CD107a),little or no effect
same,Flow cytometry CD107a,LAMP-1 (CD107a); preincubation 15 μg/mL,6.7 ± 1.5
same,Flow cytometry CD107a,LAMP-1 (CD107a); preincubation 30 μg/mL,6.4 ± 1.4
same,Flow cytometry CD107a,LAMP-1 (CD107a); preincubation 60 μg/mL,6.1 ± 1.5
same,Flow cytometry CD107a,LAMP-1 (CD107a); preincubation 90 μg/mL,6.4 ± 1.6
same,Flow cytometry PAR-1 (WEDE15),PAR-1 (WEDE15); preincubation 15 μg/mL,40.6 ± 5.5
same,Flow cytometry PAR-1 (WEDE15),PAR-1 (WEDE15); preincubation 30 μg/mL,36.1 ± 4.7
same,Flow cytometry PAR-1 (WEDE15),PAR-1 (WEDE15); preincubation 60 μg/mL,37.7 ± 5.5
same,Flow cytometry PAR-1 (WEDE15),PAR-1 (WEDE15); preincubation 90 μg/mL,34.3 ± 5.2
same,"PAR-1 thrombin receptor expression, active epitope",PAR-1 (WEDE15); pretreated samples,reduced
same,"Conventional platelet aggregation, ADP 5 μM",platelets; preincubation 15 μg/mL,39.95 ± 11.9%
same,"Conventional platelet aggregation, ADP 5 μM",platelets; preincubation 30 μg/mL,40.4 ± 6.9%
same,"Conventional platelet aggregation, ADP 5 μM",platelets; preincubation 60 μg/mL,42.05 ± 7.2%
same,"Conventional platelet aggregation, ADP 5 μM",platelets; preincubation 90 μg/mL,42.65 ± 6.3%
same,platelet aggregation induced by ADP,platelets; pretreatment of blood samples with 15-30-60-90 μg/ml,uniformed significant inhibition
